In US20070015232A1, “Mitotic index assay” (DiscoveRx, Inc., priority 2005, published 2007):

Key:
[1] = tested on: CHO-K1+EA-NLS/NRS+GR-PL cells; test: EFC mitotic index assay, CHO-K1+EA-NLS/NRS+GR-PL cells, antibiotic selected pool (DX M19/GR pool); format: cell-based; settings: 24 hours, 30 min read
Procedure: (§1) In all experiments described, 20,000 cells/well were plated in a 96 well Corning clear bottom white plate in a total volume of 100 μL. The cells were treated for 24 hours with 5 μL of either the appropriate vehicle control or varying concentrations of the six compounds listed above. The next day, 100 μL of Tropix/ABI Gal screen cell lysis buffer/substrate mixture (24:1 ratio of component) was added to the cells/media and the plate was read on the Victor II luminescent plate reader at 30, 60 and 120 minutes after the lysis/substrate addition.
(§2) The initial test of the cell cycle arresting compounds was performed on a double stable cell line having both of the constructs expressing the EA-NLS/NRS and GR-PL. (PL is β-galactosidase enzyme donor fragment and EA is the enzyme acceptor fragment available from DiscoveRx, Fremont, CA.). The parental line, C2C12 is derived from mouse muscle cells. In the experiments in which EA-NLS/NRS and GR-PL are expressed in the C2C12 parental cell line, the constructs were generated by subcloning the human GR sequence into a MFG-based retroviral vector that had been molecularly altered in a lab at Stanford. An MFG vector is described in U.S. Pat. No. 6,544,771. The EA-NLS/NRS fragment was subcloned into a wzl-based retroviral vector again molecularly altered in a lab at Stanford. In the experiments performed using a CHO-K1 parental cell line background the EA-NLS/NRS was subcloned into the Kpn I and Xba I sites of pcDNA3.1 Hygro vector from Invitrogen (catalog #V870-20). The plasmid was introduced into the cells via FuGene6 (Roche) transfection reagent. Cells were selected in the presence of 250 μg/mL of Hygromycin and single cell clones isolated that expressed the EA-NLS/NRS. The human GR gene was cloned by PCR and subcloned into the Xho I and Bam HI sites of the DiscoveRx vector-pCMV-myc-PL (C3). The plasmid was introduced into the selected EA-NLS/NRS expressing clone isolated above by FuGene 6 transfection. Another round of screening in the presence of 300-500 μg/mL of G418 was used to select GR-PL transfected clones. Clonal selection was performed to finally identify the clone that was used in these studies. In the studies using the CHO-K1+cyto-EA and cJUN-PL, the same Invitrogen pcDNA3.1 Hygro vector was used to express EA. In this case, the EA fragment was subcloned into the Kpn I/Not I sites of pcDNA3.1 Hygro. The plasmid DNA was introduced as described above using FuGene6 reagent. Cells were selected in the presence of 250 μg/mL of hygromycin and clonal selection was performed. The c-Jun gene was generated by PCR using an existing template copy of the gene and then subcloned into the Xho I/Bam HI sites of pCMV-PL-myc (C3).
In the next experiment, an antibiotic selected pool population of CHO-K1 cells that express EA-NLS/NRS and GR-PL were tested with the same six set of cell cycle blocking compounds. […] FIGS. 2a and 2b show the immunofluorescence localization of EA and GR-PL in that the blue DAPI nuclear staining can be seen to be concentrated in the nucleus, while the green fluorescein stain on the antibody (from Abcam PLC) to the glucocorticoid receptor is seen in the cytoplasm. […] Again, six tables are presented one for each of the six drugs tested.
This only occurs with compounds that block the cells in mitosis, allowing EA and ProLabel to complement.

[2] = tested on: C2C12+EA-NLS/NRS+GR-PL cells; test: EFC mitotic index assay, C2C12+EA-NLS/NRS+GR-PL cells (Stanford GR cells); format: cell-based, mouse; settings: for Avg luminescence readout / R1 luminescence readout / R3 luminescence readout / Ratio (Avg vs 0 conc): 24 hours, 30 min read
Procedure: as §1, §2

What does the source list for `CC(=O)O[C@H]1C(=O)[C@@]2(C)[C@H]([C@H](OC(=O)c3ccccc3)[C@]3(O)C[C@H](OC(=O)[C@H](O)[C@@H](NC(=O)c4ccccc4)c4ccccc4)C(C)=C1C3(C)C)[C@]1(OC(C)=O)CO[C@@H]1C[C@@H]2O` [Taxol, paclitaxel]?
Avg luminescence readout ([1]; 0.03 μM): 7167; R1 luminescence readout ([1]; 0.03 μM): 7314; R3 luminescence readout ([1]; 0.03 μM): 6605; Ratio (Avg vs 0 conc) ([1]; 0.03 μM): 1; Avg luminescence readout ([1]; 0.1 μM): 9961; R1 luminescence readout ([1]; 0.1 μM): 10680; R3 luminescence readout ([1]; 0.1 μM): 9258; Ratio (Avg vs 0 conc) ([1]; 0.1 μM): 2; Avg luminescence readout ([1]; 0.3 μM): 9506; R1 luminescence readout ([1]; 0.3 μM): 11709; R3 luminescence readout ([1]; 0.3 μM): 7904; Ratio (Avg vs 0 conc) ([1]; 0.3 μM): 1; Avg luminescence readout ([1]; 1 μM): 15972; R1 luminescence readout ([1]; 1 μM): 17111; R3 luminescence readout ([1]; 1 μM): 14344; Ratio (Avg vs 0 conc) ([1]; 1 μM): 2; Avg luminescence readout ([2]; 0.03 μM): 3094; R1 luminescence readout ([2]; 0.03 μM): 2624; R3 luminescence readout ([2]; 0.03 μM): 3543; Ratio (Avg vs 0 conc) ([2]; 0.03 μM): 1; Avg luminescence readout ([2]; 0.1 μM): 3684; R1 luminescence readout ([2]; 0.1 μM): 2602; R3 luminescence readout ([2]; 0.1 μM): 4340; Ratio (Avg vs 0 conc) ([2]; 0.1 μM): 1; Avg luminescence readout ([2]; 0.3 μM): 3213; R1 luminescence readout ([2]; 0.3 μM): 2638; R3 luminescence readout ([2]; 0.3 μM): 3639; Ratio (Avg vs 0 conc) ([2]; 0.3 μM): 1; Avg luminescence readout ([2]; 1 μM): 3692; R1 luminescence readout ([2]; 1 μM): 3016; R3 luminescence readout ([2]; 1 μM): 4104; Ratio (Avg vs 0 conc) ([2]; 1 μM): 1

What does the source list for `CC[C@]1(O)C[C@@H]2CN(CCc3c([nH]c4ccccc34)[C@@](C(=O)OC)(c3cc4c(cc3OC)N(C)[C@H]3[C@@](O)(C(=O)OC)[C@H](OC(C)=O)[C@]5(CC)C=CCN6CC[C@]43[C@@H]65)C2)C1` [Vinblastine]?
Avg luminescence readout ([1]; 1.0 μg/mL): 4335; R1 luminescence readout ([1]; 1.0 μg/mL): 4205; R3 luminescence readout ([1]; 1.0 μg/mL): 4277; Ratio (Avg vs 0 conc) ([1]; 1.0 μg/mL): 1; Avg luminescence readout ([1]; 3.3 μg/mL): 4345; R1 luminescence readout ([1]; 3.3 μg/mL): 4410; R3 luminescence readout ([1]; 3.3 μg/mL): 4436; Ratio (Avg vs 0 conc) ([1]; 3.3 μg/mL): 1; Avg luminescence readout ([1]; 10.0 μg/mL): 4078; R1 luminescence readout ([1]; 10.0 μg/mL): 3907; R3 luminescence readout ([1]; 10.0 μg/mL): 4201; Ratio (Avg vs 0 conc) ([1]; 10.0 μg/mL): 1; Avg luminescence readout ([1]; 30.0 μg/mL): 5919; R1 luminescence readout ([1]; 30.0 μg/mL): 5161; R3 luminescence readout ([1]; 30.0 μg/mL): 6583; Ratio (Avg vs 0 conc) ([1]; 30.0 μg/mL): 1; increase in EFC activity (in words) [2]: no increase in EFC activity; Avg luminescence readout ([2]; 1.0 μg/mL): 10744; R1 luminescence readout ([2]; 1.0 μg/mL): 10417.0; R3 luminescence readout ([2]; 1.0 μg/mL): 11042; Ratio (Avg vs 0 conc) ([2]; 1.0 μg/mL): 1; Avg luminescence readout ([2]; 3.3 μg/mL): 12078; R1 luminescence readout ([2]; 3.3 μg/mL): 10894.0; R3 luminescence readout ([2]; 3.3 μg/mL): 13468; Ratio (Avg vs 0 conc) ([2]; 3.3 μg/mL): 1; Avg luminescence readout ([2]; 10.0 μg/mL): 10751; R1 luminescence readout ([2]; 10.0 μg/mL): 10269.0; R3 luminescence readout ([2]; 10.0 μg/mL): 11281; Ratio (Avg vs 0 conc) ([2]; 10.0 μg/mL): 1; Avg luminescence readout ([2]; 30.0 μg/mL): 10933; R1 luminescence readout ([2]; 30.0 μg/mL): 10692.0; R3 luminescence readout ([2]; 30.0 μg/mL): 11196; Ratio (Avg vs 0 conc) ([2]; 30.0 μg/mL): 1
